Ten molecules from ChEMBL document CHEMBL4043148, “Nitro-substituted tetrahydroindolizines and homologs: Design, kinetics, and mechanism of α-glucosidase inhibition” (Bioorg Med Chem Lett, 2017) can be followed below.

Calls of active or inactive are those of the source. No cut-off for these calls is given here. Bounds are passed on as bounds.

A short description of test [1]: Inhibition of Saccharomyces cerevisiae alpha-glucosidase using 4-nitrophenyl alpha-D-glucopyranoside as substrate preincubated for 5 mins followed by substrate addition measured after 10 mins.
For test [2], the system named is Saccharomyces cerevisiae. Nature of the test: Inhibition of Saccharomyces cerevisiae alpha-glucosidase using 4-nitrophenyl alpha-D-glucopyranoside as substrate at 300 uM preincubated for 5 mins followed by substrate addition measured after 10 mins.
The test system of test [3] is Saccharomyces cerevisiae. The test can be described thus: Inhibition of Saccharomyces cerevisiae alpha-glucosidase using 4-nitrophenyl alpha-D-glucopyranoside as substrate at 150 uM preincubated for 5 mins followed by substrate addition measured after 10 mins.
Test [4] is described as follows: Mixed inhibition of Saccharomyces cerevisiae alpha-glucosidase assessed as enzyme inhibitor substrate constant up to 12.5 uM using 4-nitrophenyl alpha-D-glucopyranoside as substrate after 2 mins by Lineweaver-Burk plot analysis.
The test system of test [5] is Saccharomyces cerevisiae. The test can be described thus: Reversible inhibition of Saccharomyces cerevisiae alpha-glucosidase up to 15 uM using 4-nitrophenyl alpha-D-glucopyranoside as substrate after 2 mins by Lineweaver-Burk plot analysis.
The subject of test [6] is Saccharomyces cerevisiae. The test can be described thus: Mixed inhibition of Saccharomyces cerevisiae alpha-glucosidase assessed as Vmax for substrate up to 10 uM in presence of varying concentrations of 4-nitrophenyl alpha-D-glucopyranoside after 2 mins by Lineweaver-Burk plot analysis (reference value: 23.8 nmol/min/ml).
The test system of test [7] is Saccharomyces cerevisiae. Nature of the test: Mixed inhibition of Saccharomyces cerevisiae alpha-glucosidase assessed as free-enzyme inhibition constant up to 12.5 uM using 4-nitrophenyl alpha-D-glucopyranoside as substrate after 2 mins by Lineweaver-Burk plot analysis.
In test [8] the test system is Saccharomyces cerevisiae. Nature of the test: Mixed inhibition of Saccharomyces cerevisiae alpha-glucosidase assessed as Km for substrate up to 10 uM in presence of varying concentrations of 4-nitrophenyl alpha-D-glucopyranoside after 2 mins by Lineweaver-Burk plot analysis (reference value: 0.092 mM).
Test [9] has as its system Saccharomyces cerevisiae. Nature of the test: Potency index, ratio of 1-deoxynojirimycin IC50 to compound IC50 for Saccharomyces cerevisiae alpha-glucosidase.

What is called IC50 is the point on the concentration scale where inhibition reaches its midpoint. Read a low IC50 as higher potency. `COC(=O)C(c1c([N+](=O)[O-])cn2c1CCC2)S(C)(=O)=O` (stereo not drawn): inhibition in [1] was half-maximal at 48 µM (IC50).
Still for that read-out and setting: the figure for `COC(=O)C(c1c([N+](=O)[O-])cn2c1CCCC2)S(=O)(=O)Cc1ccccc1` (stereo not drawn) is 19.8 µM.
What is called inhibition is the share of the control response that was lost under treatment. For the molecule `CS(=O)(=O)Cc1c([N+](=O)[O-])cn2c1CCCCC2`, the inhibition result in the test with Saccharomyces cerevisiae [2] was “inactive”. In test [1], this molecule displayed a half-maximal inhibitory concentration (IC50) greater than 300 µM.
In the case of `CS(=O)(=O)Cc1c([N+](=O)[O-])cn2c1CCC2`, in the test on Saccharomyces cerevisiae [3], the inhibition is 46%. The IC50 in [1] is greater than 150 µM.
`OC[C@H]1NC[C@H](O)[C@@H](O)[C@@H]1O` [DUVOGLUSTAT] yielded an IC50 in [1] of 203 µM.
On the same count and under the same terms, the figure for `COC(=O)C(c1c([N+](=O)[O-])cn2c1CCCCC2)S(C)(=O)=O` (stereo not drawn) is 124 µM.
On the same count and under the same terms, then `CS(=O)(=O)Cc1c([N+](=O)[O-])cn2c1CCCC2`, with 72 µM.
In test [1], `COC(=O)C(c1c([N+](=O)[O-])cn2c1CCCC2)S(=O)(=O)Cc1ccc(C)cc1` (stereo not drawn) had an IC50 of 65 µM.
On to `O=[N+]([O-])c1cn2c(c1CS(=O)(=O)Cc1ccccc1)CCCC2`, for which the midpoint of inhibition in test [1], the IC50, lay at 29 µM.
In general, Ki refers to the equilibrium dissociation constant of an inhibitor or competing ligand from its target. One may read the Vmax as the rate approached at saturating substrate. In general, Km refers to the substrate concentration at which the rate is half of its maximum. For `COC(=O)C(c1c([N+](=O)[O-])cn2c1CCCC2)S(C)(=O)=O` (stereo not drawn), in test [4], the Ki is 7.6 µM. In addition, the inhibition entry in the test on Saccharomyces cerevisiae [5] is “Active”. For the same molecule, the maximum rate (Vmax) with Saccharomyces cerevisiae [6] is 10.7 nmol/min/mL. This molecule came in with an IC50 in [1] of 8 µM. The fKi with Saccharomyces cerevisiae [7] turned out to be 3.6 µM. Besides, the Km in the test with Saccharomyces cerevisiae [8] is 140 µM. For the same molecule, the Ratio IC50 with Saccharomyces cerevisiae [9] is 25.
